{
  "source": "patent US20060223819A1",
  "about": "“Quinoline Derivatives as NK-3 Antagonists” (GlaxoSmithKline S.P.A. & Laboratoire, priority 2000, published 2006)",
  "note": "Where a name gives a salt, the structure may show the parent alone.",
  "data": [
    {"units": {"melting point": "°C"}, "values": [
      {"molecule": "COc1cc2nc(-c3ccccc3)c(CN3CCNCC3)c(C(=O)N[C@@H](C)C3CCCCC3)c2cc1OC", "note": "[Example 10, 6,7-Dimethoxy-2-phenyl-3-piperazin-1-ylmethyl-quinoline-4-carboxylic acid ((S)-1-cyclohexyl-ethyl)-amide]", "melting point": "130 to 132"},
      {"molecule": "C[C@H](NC(=O)c1c(CN2CCN(Cc3ccccc3)C(=O)C2)c(-c2ccccc2)nc2ccccc12)C1CCCCC1", "note": "[Example 33, 3-(4-Benzyl-3-oxopiperazin-1-ylmethyl)-2-phenylquinoline-4-carboxylic acid ((S)-1-cyclohexylethyl)-amide]", "melting point": 181},
      {"molecule": "C[C@H](NC(=O)c1c(CN2CCN(CCO)C(=O)C2)c(-c2ccccc2)nc2ccccc12)C1CCCCC1", "note": "(as salt: hydrochloride) [Example 37, 3-[4-(2-Hydroxyethyl)-3-oxopiperazin-1-ylmethyl]-2-phenylquinoline-4-carboxylic acid ((S)-1-cyclohexyl-ethyl)-amide dihydrochloride]", "melting point": "171 to 173"},
      {"molecule": "C[C@H](NC(=O)c1c(CN2CCNC(=O)C2)c(-c2ccccc2)nc2ccc(F)cc12)C1CCCCC1", "note": "[Example 32, 6-Fluoro-3-(3-oxo-piperazin-1-ylmethyl)-2-phenyl-quinoline-4-carboxylic acid ((S)-1-cyclohexyl-ethyl)-amide]", "melting point": 230},
      {"molecule": "CCCN1CCN(Cc2c(-c3ccccc3)nc3ccccc3c2C(=O)N[C@@H](C)C2CCCCC2)CC1=O", "note": "[Example 36, 3-(3-Oxo-4-propyl-piperazin-1-ylmethyl)-2-phenyl-quinoline-4-carboxylic acid ((S)-1-cyclohexyl-ethyl)-amide]", "melting point": 150},
      {"molecule": "C[C@H](NC(=O)c1c(CN2CCN(CCS(C)(=O)=O)CC2)c(-c2ccccc2)nc2ccccc12)C1CCCCC1", "note": "[Example 21, 3-[4-(2-Methanesulfonyl-ethyl)-piperazin-1-ylmethyl]-2-phenyl-quinoline-4-carboxylic acid ((S)-1-cyclohexyl-ethyl)-amide]", "melting point": "120 to 121"},
      {"molecule": "C[C@H](NC(=O)c1c(CN2CCNCC2)c(-c2ccccc2)nc2cc3c(cc12)OCCO3)C1CCCCC1", "note": "[Example 9, 7-Phenyl-8-piperazin-1-ylmethyl-2,3-dihydro-[1,4]dioxino[2,3-g]quinoline-9-carboxylic acid ((S)-1-cyclohexyl-ethyl)-amide]", "melting point": "135 to 137"},
      {"molecule": "C[C@H](NC(=O)c1c(CN2CCN(CC(N)=O)CC2)c(-c2ccccc2)nc2ccccc12)C1CCCCC1", "note": "[Example 19, 3-(4-Carbamoylmethyl-piperazin-1-ylmethyl)-2-phenyl-quinoline-4-carboxylic acid ((S)-1-cyclohexyl-ethyl)-amide]", "melting point": "125 to 130"},
      {"molecule": "C[C@H](NC(=O)c1c(CN2CC(=O)NC(=O)C2)c(-c2ccccc2)nc2ccccc12)C1CCCCC1", "note": "[Example 29, 3-(3,5-Dioxopiperazin-1-ylmethyl)-2-phenylquinoline-4-carboxylic acid ((S)-1-cyclohexylethyl)-amide]", "melting point": 124},
      {"molecule": "C[C@H](NC(=O)c1c(CN2CCNCC2)c(-c2ccccc2)nc2ccc(F)cc12)C1CCCCC1", "note": "[Example 24, 6-Fluoro-2-phenyl-3-piperazin-1-ylmethylquinoline-4-carboxylic acid ((S)-1-cyclohexylethyl)-amide]", "melting point": "154 to 158"},
      {"molecule": "C[C@H](NC(=O)c1c(CN2CCN(CC(Cc3ccccc3)C(=O)O)CC2)c(-c2ccccc2)nc2ccccc12)C1CCCCC1", "note": "(mixture of isomers) [Example 17, 2-Benzyl-3-{4-[4-((S)-1-cyclohexyl-ethylcarbamoyl)-2-phenyl-quinolin-3-ylmethyl]-piperazin-1-yl}-propionic acid]", "melting point": 136},
      {"molecule": "CC(C)[C@H](NC(=O)c1c(CN2CCN(CC(C(=O)O)c3ccccc3)CC2)c(-c2ccccc2)nc2ccccc12)c1ccccc1", "note": "(stereo partly drawn) [Example 16, 3-{4-[4-((S)-2-Methyl-1-phenyl-propylcarbamoyl)-2-phenyl-quinolin-3-ylmethyl]-piperazin-1-yl}-2-phenyl-propionic acid]", "melting point": "156 to 158"},
      {"molecule": "COc1ccc([C@H](C)NC(=O)c2c(CN3CCNCC3)c(-c3ccccc3)nc3ccccc23)cc1", "note": "[Example 2, 2-Phenyl-3-piperazin-1-ylmethyl-quinoline-4-carboxylic acid[(S)-1-(4-methoxy-phenyl)-ethyl]-amide]", "melting point": "109 to 111"},
      {"molecule": "C[C@H](NC(=O)c1c(CN2CCNCC2=O)c(-c2ccccc2)nc2ccccc12)C1CCCCC1", "note": "[Example 30, 3-(2-Oxopiperazin-1-ylmethyl)-2-phenylquinoline-4-carboxylic acid ((S)-1-cyclohexylethyl)-amide]", "melting point": 212},
      {"molecule": "C[C@H](NC(=O)c1c(CN2CCN(CC(C(=O)O)c3ccccc3)CC2)c(-c2ccccc2)nc2ccccc12)C1CCCCC1", "note": "(stereo partly drawn) [Example 22, 3-{4-[4-((S)-1-Cyclohexyl-ethylcarbamoyl)-2-phenyl-quinolin-3-ylmethyl]-piperazin-1-yl}-2-phenyl-propionic acid]", "melting point": "144 to 145"},
      {"molecule": "C[C@H](NC(=O)c1c(CN2CCNC(=O)C2)c(-c2ccccc2)nc2cc(F)ccc12)C1CCCCC1", "note": "[Example 35, 7-Fluoro-3-(3-oxopiperazin-1-ylmethyl)-2-phenylquinoline-4-carboxylic acid ((S)-1-cyclohexyl-ethyl)-amide]", "melting point": "163 to 165"},
      {"molecule": "CC[C@H](NC(=O)c1c(CN2CCNC(=O)C2)c(-c2ccccc2)nc2ccccc12)c1ccccc1", "note": "[Example 40, 3-(3-Oxo-piperazin-1-ylmethyl)-2-phenyl-quinoline-4-carboxylic acid((S)-1-phenyl-propyl)-amide]", "melting point": 160},
      {"molecule": "C[C@H](NC(=O)c1c(CN2CCN(CCN3CCCCC3)C(=O)C2)c(-c2ccccc2)nc2ccccc12)C1CCCCC1", "note": "[Example 43, 3-[3-Oxo-4-(2-piperidin-1-ylethyl)piperazin-1-ylmethyl]-2-phenylquinoline-4-carboxylic acid ((S)-1-cyclohexylethyl)amide]", "melting point": 160},
      {"molecule": "C[C@@H](NC(=O)c1c(CN2CCNCC2)c(-c2ccccc2)nc2ccccc12)C1CCCCC1", "note": "[Example 5, 2-Phenyl-3-piperazin-1-ylmethyl-quinoline-4-carboxylic acid((R)-1-cyclohexyl-ethyl)-amide]", "melting point": "118 to 120"},
      {"molecule": "C[C@H](NC(=O)c1c(CN2CCN(/C(=C/[N+](=O)[O-])N3CCCC3)CC2)c(-c2ccccc2)nc2ccccc12)c1ccccc1", "note": "[Example 12, 3-[4-(2-Nitro-1-pyrrolidin-1-yl-vinyl)-piperazin-1-ylmethyl]-2-phenyl-quinoline-4-carboxylic acid ((S)-1-phenyl-ethyl)-amide]", "melting point": "164 to 165"},
      {"molecule": "C[C@H](NC(=O)c1c(CN2CCNC(=O)C2)c(-c2ccccc2)nc2cc3c(cc12)OCCO3)C1CCCCC1", "note": "[Example 38, 8-(3-Oxo-piperazin-1-ylmethyl)-7-phenyl-2,3-dihydro-[1,4]dioxino[2,3-g]quinoline-9-carboxylic acid ((S)-1-cyclohexyl-ethyl)-amide]", "melting point": "144 to 145"},
      {"molecule": "C[C@H](NC(=O)c1c(CN2CCNCC2)c(-c2ccccc2)nc2ccccc12)c1ccc(O)cc1", "note": "[Example 6, 2-Phenyl-3-piperazin-1-ylmethyl-quinoline-4-carboxylic acid [(S)-1-(4-hydroxy-phenyl)-ethyl]-amide]", "melting point": 163},
      {"molecule": "C[C@H](NC(=O)c1c(CN2CCNC(=O)C2)c(-c2cccs2)nc2ccccc12)C1CCCCC1", "note": "[Example 41, 3-(3-Oxo-piperazin-1-ylmethyl)-2-thiophen-2-yl-quinoline-4-carboxylic acid ((S)-1-cyclohexylethyl)-amide]", "melting point": "225 to 230"},
      {"molecule": "C[C@H](NC(=O)c1c(CN2CCN(CCC(=O)O)CC2)c(-c2ccccc2)nc2ccccc12)C1CCCCC1", "note": "[Example 18, 3-{4-[4-((S)-1-Cyclohexyl-ethylcarbamoyl)-2-phenyl-quinolin-3-ylmethyl]-piperazin-1-yl}-propionic acid]", "melting point": "192 to 195"},
      {"molecule": "CC(C)[C@H](NC(=O)c1c(CN2CCN(/C(=C/[N+](=O)[O-])N3CCCC3)CC2)c(-c2ccccc2)nc2ccccc12)c1ccccc1", "note": "[Example 13, 3-[4-(2-Nitro-1-pyrrolidin-1-yl-vinyl)-piperazin-1-ylmethyl]-2-phenyl-quinoline-4-carboxylic acid ((S)-2-methyl-1-phenyl-propyl)-amide]", "melting point": "170 to 175"},
      {"molecule": "CCOC(=O)C1CCCN(/C(=C\\[N+](=O)[O-])N2CCN(Cc3c(-c4ccccc4)nc4ccccc4c3C(=O)N[C@@H](C)c3ccccc3)CC2)C1", "note": "(stereo partly drawn) [Example 15, 1-(2-Nitro-1-{4-[2-phenyl-4-((S)-1-phenyl-ethylcarbamoyl)-quinolin-3-ylmethyl]-piperazin-1-yl}-vinyl)-piperidine-3-carboxylic acid ethyl ester]", "melting point": "120 to 121"},
      {"molecule": "CC(CN1CCN(Cc2c(-c3ccccc3)nc3ccccc3c2C(=O)N[C@@H](C)c2ccccc2)CC1)C(=O)O", "note": "(stereo partly drawn) [Example 14, 2-Methyl-3-{4-[2-phenyl-4-((S)-1-phenyl-ethylcarbamoyl)-quinolin-3-ylmethyl]-piperazin-1-yl}-propionic acid]", "melting point": "137 to 138"},
      {"molecule": "C[C@H](NC(=O)c1c(CN2CCNC(=O)C2)c(-c2ccccc2F)nc2ccccc12)C1CCCCC1", "note": "[Example 46, 2-(2-Fluorophenyl)-3-(3-oxopiperazin-1-ylmethyl)-quinoline-4-carboxylic acid ((S)-1-cyclohexyl-ethyl)-amide]", "melting point": "167 to 169"},
      {"molecule": "C[C@H](NC(=O)c1c(CN2CCNC(=O)C2)c(-c2ccc(C(F)(F)F)cc2)nc2ccccc12)C1CCCCC1", "note": "[Example 45, 3-(3-Oxopiperazin-1-ylmethyl)-2-(4-trifluoromethylphenyl)quinoline-4-carboxylic acid ((S)-1-cyclohexylethyl)-amide]", "melting point": "214 to 217"},
      {"molecule": "CCOC(=O)C(CN1CCN(Cc2c(-c3ccccc3)nc3ccccc3c2C(=O)N[C@@H](C)C2CCCCC2)CC1)c1ccccc1", "note": "(stereo partly drawn) [Example 20, 3-{4-[4-((S)-1-Cyclohexyl-ethylcarbamoyl)-2-phenyl-quinolin-3-ylmethyl]-piperazin-1-yl}-2-phenyl-propionic acid ethyl ester]", "melting point": "90 to 91"},
      {"molecule": "C[C@H](NC(=O)c1c(CN2CC(=O)NCC2=O)c(-c2ccccc2)nc2ccccc12)C1CCCCC1", "note": "[Example 31, 3-(2,5-Dioxo-piperazin-1-ylmethyl)-2-phenyl-quinoline-4-carboxylic acid ((S)1-cyclohexylethyl)-amide]", "melting point": 251}
    ]}
  ]
}
